According to patent US20240366589A1, “NHE3-BINDING COMPOUNDS AND METHODS FOR INHIBITING PHOSPHATE TRANSPORT” (Ardelyx, Inc., priority 2013, published 2024):
Like-named read-outs stand apart in the source and are kept apart here.

Experiments:
[1] = tested on: absorption of sodium from the intestinal lumen; experiment: Inhibition of intestinal sodium absorption: urinary sodium (uNa) 16 h after single oral dose in rats; format: in vivo, rat; conditions: for Urine Na % of control: oral gavage, 16 h post-dose
Description: (§1) Inhibition of intestinal sodium and phosphate absorption. Urinary sodium concentration and fecal form were measured to assess the ability of selected example compounds to inhibit the absorption of sodium from the intestinal lumen. Eight-week old Sprague-Dawley rats were purchased from Charles River Laboratories (Hollister, CA), were housed 2 per cage, and acclimated for at least 3 days before study initiation. Animals were fed Harlan Teklad Global 2018 rodent chow (Indianapolis, IN) and water ad libitum throughout the study and maintained in a standard light/dark cycle of 6 AM to 6 PM. On the day of the study, between 4 PM and 5 PM, a group of rats (n=6) were dosed via oral gavage with test compound, or a pharmaceutically acceptable salt thereof, or vehicle (water) at a volume of 10 mL/kg.
(§2) After dose administration animals were placed in individual metabolic cages where they were also fed the same chow in meal form and watered ad libitum. At 16 h post-dose, the urine samples were collected and fecal form was assessed by two independent observations. Fecal forms were scored according to a common scale associated with increasing fecal water to the wettest observation in the cage's collection funnel (1, normal pellet; 2, pellet adhering to sides of collection funnel due to moisture; 3, loss of normal pellet shape; 4, complete loss of shape with a blotting pattern; 5, liquid fecal streams evident). A rat's fecal form score (FFS) was determined by averaging both observational scores for all rats within a group (n=6). The vehicle group average was 1.
For urine samples, the volumes were determined gravimetrically and centrifuged at 3,600×g. The supernatants were diluted 100-fold in deionized Milli-Q water then filtered through a 0.2 μm GHP Pall AcroPrep filter plate (Pall Life Sciences, Ann Arbor, MI) prior to analysis by ion chromatography. Ten microliters of each filtered extract was injected onto a Dionex ICS-3000 ion chromatograph system (Dionex, Sunnyvale, CA). Cations were separated by an isocratic method using 25 mM methanesulfonic acid as the eluent on an IonPac CS12A 2 mm i.d.×250 mm, 8 μm particle size cation exchange column (Dionex). Sodium was quantified using standards prepared from a cation standard mix containing Li^+, Na^+, NH4^+, K^+, Mg^2+, and Ca^2+ (Dionex). The mean mass of sodium urinated for every group in the 16 h period was determined with the vehicle group usually urinating approximately 21 mg sodium. The urine Na (uNa) for rats in the test groups were expressed as a percentage of the vehicle mean and the means were compared to that of the vehicle group by utilizing a one-way analysis of variance coupled with a Dunnett's post hoc test.
Further experiments were performed to test the compounds under the persistent and prompt conditions described above, and to test their effects on urinary excretion of sodium in rats. The latter was performed by orally dosing the compounds in rats (single dose) and measuring urinary Na excretion (as a % of vehicle). The results are indicated as percentage of urinary sodium (UNa %); low values indicate relatively active compounds.

Human NHE3 = target: T1, Human NHE3 (Homo sapiens, UniProt P48764); experiment: Cell-based NHE3 activity under prompt conditions (OK cells, BCECF pH recovery), human NHE3
T1 construct: expressed in transfected cells; host or cells: Opossum kidney (OK) cells (ATCC), electroporation
T1 sequence (P48764 26-834): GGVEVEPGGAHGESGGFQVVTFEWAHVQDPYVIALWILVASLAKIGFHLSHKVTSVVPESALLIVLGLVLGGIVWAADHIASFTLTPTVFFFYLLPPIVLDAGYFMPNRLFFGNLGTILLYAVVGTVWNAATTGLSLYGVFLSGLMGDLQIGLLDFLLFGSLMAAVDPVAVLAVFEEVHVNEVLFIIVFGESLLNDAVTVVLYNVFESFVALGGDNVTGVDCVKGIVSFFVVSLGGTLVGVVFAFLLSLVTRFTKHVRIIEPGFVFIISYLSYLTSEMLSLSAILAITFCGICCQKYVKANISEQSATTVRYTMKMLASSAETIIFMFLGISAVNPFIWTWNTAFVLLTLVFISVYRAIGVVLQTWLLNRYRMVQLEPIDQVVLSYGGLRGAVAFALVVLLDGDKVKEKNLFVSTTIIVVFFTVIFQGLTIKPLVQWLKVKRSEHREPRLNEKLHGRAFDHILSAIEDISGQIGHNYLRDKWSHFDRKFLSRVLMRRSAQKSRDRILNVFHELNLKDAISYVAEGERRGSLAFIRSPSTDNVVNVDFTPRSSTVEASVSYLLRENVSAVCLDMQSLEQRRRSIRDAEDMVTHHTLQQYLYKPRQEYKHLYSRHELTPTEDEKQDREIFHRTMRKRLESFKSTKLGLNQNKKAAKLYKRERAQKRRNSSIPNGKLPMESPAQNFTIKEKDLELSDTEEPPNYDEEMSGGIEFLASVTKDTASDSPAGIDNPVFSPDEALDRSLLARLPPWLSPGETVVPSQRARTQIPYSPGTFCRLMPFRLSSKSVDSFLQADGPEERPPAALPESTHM
Description: (§3) Cell-based activity under Prompt Conditions. Rat or human NHE3-mediated Na^+-dependent H antiport was measured using a modification of the pH sensitive dye method originally reported by Paradiso (PNAS USA. 81:7436-7440, 1984). Opossum kidney (OK) cells were obtained from the ATCC and propagated per their instructions. The rat NHE3 gene (GenBank M85300) or the human NHE3 gene (GenBank NM_004174.1) was introduced into OK cells via electroporation, and cells were seeded into 96 well plates and grown overnight. Medium was aspirated from the wells, cells were washed twice with NaCl-HEPES buffer (100 mM NaCl, 50 mM HEPES, 10 mM glucose, 5 mM KCl, 2 mM CaCl2, 1 mM MgCl2, pH 7.4), then incubated for 30 min at room temperature with NH4Cl-HEPES buffer (20 mM NH4Cl, 80 mM NaCl, 50 mM HEPES, 5 mM KCl, 2 mM CaCl2, 1 mM MgCl2, pH 7.4) containing 5 μM bis(acetoxymethyl) 3,3′-(3′,6′-bis(acetoxymethoxy)-5-((acetoxymethoxy)carbonyl)-3-oxo-3H-spiro[isobenzofuran-1,9′-xanthene]-2′,7′-diyl)dipropanoate (BCECF-AM).
(§4) Cells were washed twice with Ammonium free, Na^+-free HEPES (100 mM choline, 50 mM HEPES, 10 mM glucose, 5 mM KCl, 2 mM CaCl2, 1 mM MgCl2, pH 7.4) and incubated in the same buffer for 10 minutes at room temperature to lower intracellular pH. […] Initial rates were plotted as the average 2 or more replicates, and pIC50 values were estimated using GraphPad Prism.
(§5) Cell-based activity of NHE3 Activity under ‘Prompt’ Conditions. This assay was performed as described in Example 1 (supra).

Rat NHE3 = target: T2, Rat NHE3 (Rattus norvegicus, UniProt P26433); experiment: Cell-based NHE3 activity under prompt conditions (OK cells, BCECF pH recovery), rat NHE3; conditions: for IC50 / Prompt Rat NHE3 pIC50: prompt conditions; for IC50: read-out: Prompt Rat NHE3 pIC50 (converted)
T2 construct: expressed in transfected cells; host or cells: Opossum kidney (OK) cells (ATCC), electroporation
T2 sequence (P26433 29-831): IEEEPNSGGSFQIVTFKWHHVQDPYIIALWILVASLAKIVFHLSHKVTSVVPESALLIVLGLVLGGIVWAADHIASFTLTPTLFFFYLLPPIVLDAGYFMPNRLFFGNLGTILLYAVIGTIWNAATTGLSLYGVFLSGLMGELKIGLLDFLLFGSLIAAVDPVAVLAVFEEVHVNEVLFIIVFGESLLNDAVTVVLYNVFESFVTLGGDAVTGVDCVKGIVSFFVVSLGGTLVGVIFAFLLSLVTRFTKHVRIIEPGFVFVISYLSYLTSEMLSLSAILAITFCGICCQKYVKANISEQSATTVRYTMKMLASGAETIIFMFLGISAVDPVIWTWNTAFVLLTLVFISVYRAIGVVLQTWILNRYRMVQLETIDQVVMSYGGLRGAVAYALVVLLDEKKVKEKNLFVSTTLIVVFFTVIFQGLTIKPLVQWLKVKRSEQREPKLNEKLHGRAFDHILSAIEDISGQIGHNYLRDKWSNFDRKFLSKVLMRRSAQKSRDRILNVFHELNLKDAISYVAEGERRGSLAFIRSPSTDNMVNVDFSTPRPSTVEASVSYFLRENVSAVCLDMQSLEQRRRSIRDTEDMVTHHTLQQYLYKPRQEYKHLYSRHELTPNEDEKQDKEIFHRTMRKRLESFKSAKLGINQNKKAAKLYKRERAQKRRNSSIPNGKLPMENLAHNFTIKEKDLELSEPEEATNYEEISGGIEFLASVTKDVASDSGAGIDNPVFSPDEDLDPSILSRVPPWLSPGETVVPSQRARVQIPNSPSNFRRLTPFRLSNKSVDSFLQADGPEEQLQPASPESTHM
Description: as §3, §4, §5

[2] = tested on: absorption of sodium from the intestinal lumen; experiment: Fecal form score (FFS) 16 h after oral dose in rats; format: in vivo, rat; conditions: oral gavage, 16 h post-dose, scale 1-5
Description: as §1, §2

[3] = tested on: phosphorus and calcium levels in the urine of rats; experiment: Urinary excretion of phosphate and calcium in rats (16 h overnight urine); format: in vivo, rat; conditions: rats, oral gavage, 16 h post-dose
[4] = prompt conditions, read-out: Prompt Human NHE3 pIC50 (converted)

SMILES | IC50 (Human NHE3; [4]) | IC50 (Rat NHE3) | Prompt Human NHE3 pIC50 (Human NHE3; prompt conditions) | Urine Na % of control ([1]; dose 10 mg/kg) | Fecal Form Score average ([2]; dose 10 mg/kg) | Urine P % of control ([3]; dose 10 mg/kg) | other results
NS(=O)(=O)c1ccc(O[C@H]2c3ccccc3C[C@@H]2N2CCCCC2)cc1 (racemic) [compound 38] | 2510 nM | 3160 nM |  | 101% | 1 | 120% | 
O=C(NCCCCNC(=O)NCCOCCOCCNS(=O)(=O)c1ccc(O[C@H]2c3ccccc3C[C@@H]2N2CCCCC2)cc1)NCCOCCOCCNS(=O)(=O)c1ccc(O[C@H]2c3ccccc3C[C@@H]2N2CCCCC2)cc1 (racemic) [compound 47] | 15.8 nM | 50.1 nM |  | 73% | 1 | 51% | 
O=C(O)CN(CCN(CC(=O)O)CC(=O)NCCOCCOCCNS(=O)(=O)c1ccc(O[C@H]2c3ccccc3C[C@@H]2N2CCCCC2)cc1)CC(=O)NCCOCCOCCNS(=O)(=O)c1ccc(O[C@H]2c3ccccc3C[C@@H]2N2CCCCC2)cc1 (racemic) [compound 48] | 79.4 nM | 28.2 nM |  | 68% | 1 | 55% | 
CN1Cc2c(Cl)cc(Cl)cc2[C@H](c2cccc(NC(=O)[C@H](O)[C@@H](O)[C@H](O)[C@H](O)CO)c2)C1 [Cpd 001] |  |  |  |  |  |  | UNa (%) ([1]; urinary Na excretion as % of vehicle, single oral dose 1 mg/kg): 41 @ 1 mg/kg %; IC50 (Human NHE3; Table E5, 001 free base, 002-005 dihydrochloride salt, read-out: Human NHE3 pIC50 Prompt (converted)): 39.8 nM; Rat NHE3 pIC50 Prompt (Rat NHE3; Table E5, 001 free base, 002-005 dihydrochloride salt): 7.6
CN1Cc2c(Cl)cc(Cl)cc2[C@H](c2cccc(S(=O)(=O)NCCOCCOCCOCCNC(=O)[C@@H](O)[C@H](O)C(=O)NCCOCCOCCOCCNS(=O)(=O)c3cccc([C@@H]4CN(C)Cc5c(Cl)cc(Cl)cc54)c3)c2)C1 [compound 6] |  |  | 8.30 |  |  |  | Urine Na % of control ([1]; dose 1 mg/kg): 21%; Fecal Form Score average ([2]; dose 1 mg/kg): 2; Urine P % of control ([3]; dose 1 mg/kg): 46%

Second part, led by results:

IC50 (Human NHE3; [4]) | IC50 (Rat NHE3) | Prompt Human NHE3 pIC50 (Human NHE3; prompt conditions) | SMILES | Urine Na % of control ([1]; dose 10 mg/kg) | Fecal Form Score average ([2]; dose 10 mg/kg) | Urine P % of control ([3]; dose 10 mg/kg) | other results
12.6 nM | 20 nM |  | O=C(NCCOCCOCCOCCNS(=O)(=O)c1ccc(OC2c3ccccc3CC2N2CCCCC2)cc1)C(O)C(O)C(=O)NCCOCCOCCOCCNS(=O)(=O)c1ccc(OC2c3ccccc3CC2N2CCCCC2)cc1 (mixture of isomers) [compound 55] | 85% | 1 | 45% | 
 |  | 7.90 | O=C(NCCCCNC(=O)NCCOCCOCCOCCNS(=O)(=O)c1ccc(O[C@H]2c3ccccc3C[C@@H]2N2CCCCC2)cc1)NCCOCCOCCOCCNS(=O)(=O)c1ccc(O[C@H]2c3ccccc3C[C@@H]2N2CCCCC2)cc1 (racemic) [compound 51] | 79% | 1 | 52% | Prompt Rat NHE3 pIC50 (Rat NHE3): 7.40
 |  | 7.50 | O=C(CCOCCOCCOCCOCCOCCC(=O)NCCOCCOCCNS(=O)(=O)c1ccc(OC2c3ccccc3CC2N2CCCCC2)cc1)NCCOCCOCCNS(=O)(=O)c1ccc(OC2c3ccccc3CC2N2CCCCC2)cc1 (racemic) [compound 54] | 75% | 1 | 72% | Prompt Rat NHE3 pIC50 (Rat NHE3): 7.30
 |  | 7.70 | O=C(NCCCCNC(=O)NCCOCCOCCNS(=O)(=O)c1ccc(O[C@H]2c3cc(Cl)cc(F)c3C[C@@H]2N2CCCCC2)cc1)NCCOCCOCCNS(=O)(=O)c1ccc(O[C@H]2c3cc(Cl)cc(F)c3C[C@@H]2N2CCCCC2)cc1 [compound 160] | 108% | 1 | 77% | 
 |  | 8.20 | CN(C)[C@H]1Cc2c(Cl)cc(Cl)cc2[C@@H]1Oc1ccc(S(=O)(=O)NCCOCCOCCNC(=O)NCCCCNC(=O)NCCOCCOCCN(C)S(=O)(=O)c2ccc(O[C@H]3c4cc(Cl)cc(Cl)c4C[C@@H]3N(C)C)cc2)cc1 [compound 171] | 49% | 1 | 49% | 
 |  | 8.10 | CC(O)C(CCC(=O)NCCOCCOCCNS(=O)(=O)c1cccc([C@@H]2CN(C)Cc3c(Cl)cc(Cl)cc32)c1)(CCC(=O)NCCOCCOCCNS(=O)(=O)c1cccc([C@@H]2CN(C)Cc3c(Cl)cc(Cl)cc32)c1)CCC(=O)NCCOCCOCCNS(=O)(=O)c1cccc([C@@H]2CN(C)Cc3c(Cl)cc(Cl)cc32)c1 (some centres unmarked) [compound 173] |  |  |  | Prompt Rat NHE3 pIC50 (Rat NHE3): 7.60
